Some test systems named below: DLD-1; LXFL 529; KM-20L2; HOP-18; DMS-273; XF498; SNB-78; RXF 631; DMS-114.
Holding throughout (test): NCI anticancer screen, dose series, 48 h

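Values below derive from 48-hour exposures of cells grown in 96-well plates, with endpoints linearly interpolated between the two concentrations bracketing the appropriate inhibition level. GI50 = concentration required for 50% inhibition of growth.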 Active and inactive are the calls of the source. No stated cut-off is given here; in the data, active = GI50 up to about 1.1 µM and inactive = higher. Where only a bound is given, the exact number is not on record here.

`O=C1C(Cl)=C(Cl)C(=O)N1c1ccc(F)cc1` [FLUOROIMIDE]: the GI50 with DLD-1 is 18.2 µM (inactive); in the experiment on LXFL 529, 15.9 µM (inactive); with KM-20L2 it was 22.1 µM (inactive); in the experiment with HOP-18, 21.1 µM (inactive); in the experiment on DMS-273, 25.8 µM (inactive); with XF498, 19.9 µM (inactive). The GI50 was 27 µM (inactive) in the experiment with SNB-78, 28.9 µM (inactive) in the experiment on RXF 631 and 19.7 µM (inactive) in the experiment on DMS-114.

For the molecule `CCN(CC)c1ccc(/N=C2\C=C(Cl)C(=O)c3ncccc32)c(C)c1`, the GI50 is 4.06 µM (inactive) in the experiment on DLD-1; 5.65 µM (inactive) with KM-20L2; 3.08 µM (inactive) with HOP-18; 3.73 µM (inactive) in the experiment with DMS-273; 5.78 µM (inactive) with XF498; 13.1 µM (inactive) in the experiment with SNB-78. For the same molecule, the GI50 is 13.5 µM (inactive) with RXF 631 and 2.67 µM (inactive) with DMS-114.

For `CS(=O)(=O)Sc1ccc(Cl)cc1`, the GI50 in the experiment on DLD-1 was 13.9 µM (inactive); with LXFL 529, 11.3 µM (inactive); in the experiment with KM-20L2 it was 11.9 µM (inactive); in the experiment with HOP-18, 26.8 µM (inactive); in the experiment with DMS-273 it was 5.15 µM (inactive); in the experiment on XF498, 10.7 µM (inactive). In addition, the GI50 was 0.713 µM (active) in the experiment with SNB-78 and 7.38 µM (inactive) with RXF 631.

As for `NCc1cc(O)c(O)c(O)c1`, the GI50 in the experiment with DLD-1, with LXFL 529, in the experiment on KM-20L2, with HOP-18, with DMS-273 and in the experiment on XF498 was > 100 µM (inactive) each time. Moreover, the GI50 in the experiment with SNB-78, in the experiment on RXF 631 and in the experiment with DMS-114 was > 100 µM (inactive) each time.
